Source: patent US10556907B2 (AbbVie Inc., priority 2015, dated 2020)
pEC50: −log10 of the molar value. Structures can show the parent of a compound that is named as a salt.

Experiments:
Assay in all cases: Method 1: intracellular Ca2+ release (FLIPR, Calcium 5) in recombinant CHO-K1 cells
Format in all cases: cell-based
[1] = biological target: T1, human S1PR4 receptor (Homo sapiens, UniProt O95977); settings: (1): determined with method 1; read-out: S1P4 EC50
T1 construct: host or cells: CHO-K1
T1 sequence (O95977 1-384): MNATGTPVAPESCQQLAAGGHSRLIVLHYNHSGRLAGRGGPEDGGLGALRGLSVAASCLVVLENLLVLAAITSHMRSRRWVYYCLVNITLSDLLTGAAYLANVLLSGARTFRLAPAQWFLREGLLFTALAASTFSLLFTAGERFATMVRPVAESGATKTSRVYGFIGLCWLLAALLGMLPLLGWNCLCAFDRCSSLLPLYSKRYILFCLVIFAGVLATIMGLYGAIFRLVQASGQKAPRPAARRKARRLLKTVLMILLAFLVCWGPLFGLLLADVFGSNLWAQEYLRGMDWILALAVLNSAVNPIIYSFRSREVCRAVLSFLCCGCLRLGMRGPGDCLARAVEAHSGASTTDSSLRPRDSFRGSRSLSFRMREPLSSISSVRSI
Method in brief: (§1)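 CHO-K1 cells co-expressing the receptor, aequorin and Gq/i5 were loaded with Calcium 5 dye for 1 h at 37 °C, adapted 45 min to RT, then given serially diluted compound in HBSS/20 mmol/L Hepes/2.5 mmol/L probenecid/0.1% BSA, pH 7.4. FLIPR fluorescence was read; EC50 came from nonlinear fits normalized to phospho-fingolimod.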

[2] = biological target: T2, human S1PR3 receptor (Homo sapiens, UniProt Q99500); settings: (1): determined with method 1; read-out: S1P3 EC50
T2 construct: host or cells: CHO-K1
T2 sequence (Q99500 whole entry): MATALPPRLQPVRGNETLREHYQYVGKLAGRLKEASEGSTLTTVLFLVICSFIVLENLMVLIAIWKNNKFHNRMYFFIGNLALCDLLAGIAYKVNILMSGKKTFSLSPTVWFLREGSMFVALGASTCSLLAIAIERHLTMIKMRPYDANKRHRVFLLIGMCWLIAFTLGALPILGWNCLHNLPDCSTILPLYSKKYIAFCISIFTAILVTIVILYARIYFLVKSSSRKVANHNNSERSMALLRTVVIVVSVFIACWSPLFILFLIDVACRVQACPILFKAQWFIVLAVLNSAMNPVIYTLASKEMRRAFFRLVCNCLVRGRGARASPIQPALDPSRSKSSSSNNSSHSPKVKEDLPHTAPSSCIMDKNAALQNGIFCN
Method in brief: as §1

[3] = biological target: T3, human S1PR1 receptor (Homo sapiens, UniProt P21453); settings: (1): determined with method 1; read-out: S1P1 EC50
T3 construct: host or cells: CHO-K1
T3 sequence (P21453 whole entry): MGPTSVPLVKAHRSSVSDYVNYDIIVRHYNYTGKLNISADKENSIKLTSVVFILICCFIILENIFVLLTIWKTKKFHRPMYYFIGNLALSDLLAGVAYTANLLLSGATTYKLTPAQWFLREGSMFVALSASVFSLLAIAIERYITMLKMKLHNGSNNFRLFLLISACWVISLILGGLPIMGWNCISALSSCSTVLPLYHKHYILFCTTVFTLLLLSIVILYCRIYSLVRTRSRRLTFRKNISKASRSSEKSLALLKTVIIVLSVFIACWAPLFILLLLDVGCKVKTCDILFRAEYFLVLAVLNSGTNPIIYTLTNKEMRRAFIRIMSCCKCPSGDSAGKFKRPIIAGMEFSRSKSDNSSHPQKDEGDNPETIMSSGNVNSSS
Method in brief: as §1

[4] = biological target: T4, human S1PR5 receptor (Homo sapiens, UniProt Q9H228); settings: agonist potency, determined with method 1 (symbols A-D); read-out: S1P5 EC50 range
T4 construct: host or cells: CHO-K1
T4 sequence (Q9H228 whole entry): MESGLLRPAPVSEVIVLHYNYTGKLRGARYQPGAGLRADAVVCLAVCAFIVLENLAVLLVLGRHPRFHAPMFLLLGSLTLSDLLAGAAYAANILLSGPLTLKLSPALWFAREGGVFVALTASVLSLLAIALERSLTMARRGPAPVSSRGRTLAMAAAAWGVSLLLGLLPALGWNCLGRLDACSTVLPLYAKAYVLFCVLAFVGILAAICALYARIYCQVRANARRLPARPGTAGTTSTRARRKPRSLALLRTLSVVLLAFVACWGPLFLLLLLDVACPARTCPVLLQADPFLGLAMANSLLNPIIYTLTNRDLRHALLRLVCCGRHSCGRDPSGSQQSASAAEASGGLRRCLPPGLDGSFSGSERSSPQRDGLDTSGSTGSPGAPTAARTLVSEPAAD
Method in brief: as §1

Structure (SMILES) | pEC50 [1] | pEC50 [2] | pEC50 [3] | pEC50 [4]
CC(CN1CCc2nc(-c3ccc(OCc4cc(Cl)cc(Cl)c4)cc3)ncc2C1)C(=O)O (single isomer, unassigned) [Compound 19, 3-(2-(4-((3,5-dichlorobenzyl)oxy)phenyl)-7,8-dihydropyrido[4,3-d]pyrimidin-6(5H)-yl)-2-methylpropanoic acid] | < 6.00 | < 6.00 | < 6.00 | > 8.00
Cc1c(COc2ccc(-c3ncc4c(n3)CCN(CC(C)CC(=O)O)C4)cc2)cccc1C(F)(F)F (stereo not drawn) [Compound 246, 3-methyl-4-[2-[4-[[2-methyl-3-(trifluoromethyl)phenyl]methoxy]phenyl]-7,8-dihydro-5H-pyrido[4,3-d]pyrimidin-6-yl]butanoic acid 2,2,2-trifluoroacetic acid salt] | < 6.00 | < 6.00 | < 6.00 | > 8.00
CC(CN1CCc2nc(-c3ccc(OCc4cc(Cl)cc(Cl)c4)cc3)ncc2C1)C(=O)O (stereo not drawn) [Compound 17, 3-(2-(4-((3,5-dichlorobenzyl)oxy)phenyl)-7,8-dihydropyrido[4,3-d]pyrimidin-6(5H)-yl)-2-methylpropanoic acid] | < 6.00 | < 6.00 | < 6.00 | > 8.00
CC(CC(=O)O)CN1CCc2nc(-c3ccc(OCc4ccc(C(F)(F)F)cc4)cc3)ncc2C1 (stereo not drawn) [Compound 233, 3-methyl-4-(2-(4-((4-(trifluoromethyl)benzyl)oxy)phenyl)-7,8-dihydropyrido[4,3-d]pyrimidin-6(5H)-yl)butanoic acid] | > 6.00 | < 6.00 | > 6.00 | > 8.00
O=C(O)C1CC(N2CCc3nc(C#Cc4cc(F)cc(F)c4)ncc3C2)C1 (stereo not drawn) [Compound 61, 3-(2-((3,5-difluorophenyl)ethynyl)-7,8-dihydropyrido[4,3-d]pyrimidin-6(5H)-yl)cyclobutanecarboxylic acid] | < 6.00 | < 6.00 | < 6.00 | 5.00 to 6.00
CCOc1ccc(C#Cc2ccc3c(n2)CCN(C2CC(C(=O)O)C2)C3)cc1 (stereo not drawn) [Compound 122, 3-(2-((4-ethoxyphenyl)ethynyl)-7,8-dihydro-1,6-naphthyridin-6(5H)-yl)cyclobutanecarboxylic acid] | < 6.00 | < 6.00 | < 6.00 | 5.00 to 6.00
O=C(O)CC1(CN2CCc3nc(-c4ccc(OCc5ccc(Cl)cc5)cc4)ncc3C2)CC1 [Compound 281, 2-((4(2-(4-((4-chlorobenzyl)oxy)phenyl)-7,8-dihydropyrido[4,3-d]pyrimidin-6(5H)-yl)methyl)cyclopropyl)acetic acid] | < 6.00 | < 6.00 | < 6.00 | 7.00 to 8.00
O=C(O)CN1CCc2nc(-c3ccc(OCc4ccc(Cl)c(Cl)c4)cc3)ncc2C1 [Compound 30, 2-(2-(4-((3,4-dichlorobenzyl)oxy)phenyl)-7,8-dihydropyrido[4,3-d]pyrimidin-6(5H)-yl)acetic acid] | < 6.00 | < 6.00 | < 6.00 | 7.00 to 8.00
O=C(O)C1CC(N2CCc3nc(C#Cc4ccccc4)ccc3C2)C1 (stereo not drawn) [Compound 119, 3-(2-(phenylethynyl)-7,8-dihydro-1,6-naphthyridin-6(5H)-yl)cyclobutanecarboxylic acid] | < 6.00 | < 6.00 | < 6.00 | 5.00 to 6.00
Cc1cc(-c2cc3c(cn2)CN(CCC(=O)O)CC3)ccc1OCc1ccc(C(F)(F)F)cc1 [Compound 173, 3-(6-((4(4-trifluoromethylbenzyl)oxy)-3-methylphenyl)-3,4-dihydro-2,7-naphthyridin-2(1H)-yl)propanoic acid] | < 6.00 | < 6.00 | < 6.00 | > 8.00
O=C(O)C1CC(N2CCc3nc(C#Cc4ccccc4Cl)ccc3C2)C1 (stereo not drawn) [Compound 126, 3-(2-((2-chlorophenyl)ethynyl)-7,8-dihydro-1,6-naphthyridin-6(5H)-yl)cyclobutanecarboxylic acid] | < 6.00 | < 6.00 | < 6.00 | 5.00 to 6.00
O=C(O)C1CC(N2CCc3nc(C#Cc4ccc(Cl)cc4)ncc3C2)C1 (stereo not drawn) [Compound 54, 3-(2-((4-chlorophenyl)ethynyl)-7,8-dihydropyrido[4,3-d]pyrimidin-6(5H)-yl)cyclobutanecarboxylic acid] | < 6.00 | < 6.00 | < 6.00 | 5.00 to 6.00

Continued, values first:

pEC50 [1] | pEC50 [2] | pEC50 [3] | pEC50 [4] | Structure (SMILES)
< 6.00 | < 6.00 | > 6.00 | > 8.00 | CC(CCN1CCc2nc(-c3ccc(OCc4ccc(Cl)cc4)cc3)c(F)cc2C1)C(=O)O (stereo not drawn) [Compound 181]
< 6.00 | < 6.00 | < 6.00 | > 8.00 | O=C(O)CCN1CCc2nc(-c3ccc(OCc4ccccc4C(F)F)cc3)ccc2C1 [Compound 165, 3-(2-(4-((2-difluoromethylbenzyl)oxy)phenyl)-7,8-dihydro-1,6-naphthyridin-6(5H)-yl)propanoic acid]
< 6.00 | < 6.00 | < 6.00 | > 8.00 | O=C(O)CCN1CCc2nc(-c3ccc(OCc4ccc(Cl)cc4)cc3)cnc2C1 [Compound 178, 3-(2-(4-((4-chlorobenzyl)oxy)phenyl)-7,8-dihydropyrido[3,4-b]pyrazin-6(5H)-yl)propanoic acid]
< 6.00 | < 6.00 | < 6.00 | 6.00 to 7.00 | O=C(O)CN1CCc2nc(-c3ccc(OCc4cccc(Cl)c4)cc3)ncc2C1 [Compound 32, 2-(2-(4-((3-chlorobenzyl)oxy)phenyl)-7,8-dihydropyrido[4,3-d]pyrimidin-6(5H)-yl)acetic acid]
< 6.00 | < 6.00 | < 6.00 | > 8.00 | CC(C)(C)c1ccc(COc2ccc(-c3ccc4c(n3)CCN(CCC(=O)O)C4)cc2)cc1 [Compound 156, 3-(2-(4-((4-(tert-butyl)benzyl)oxy)phenyl)-7,8-dihydro-1,6-naphthyridin-6(5H)-yl)propanoic acid]
< 6.00 | < 6.00 | < 6.00 | > 8.00 | O=C(O)CCN1CCc2nc(-c3ccc(OCc4ccc(OC(F)F)cc4)cc3)ncc2C1 [Compound 83, 3-(2-(4-((4-(difluoromethoxy)benzyl)oxy)phenyl)-7,8-dihydropyrido[4,3-d]pyrimidin-6(5H)-yl)propanoic acid]
< 6.00 | < 6.00 | > 6.00 | > 8.00 | Cc1cccc(COc2ccc(-c3ncc4c(n3)CCN(CC(C)CC(=O)O)C4)cc2)c1 (stereo not drawn) [Compound 230, 3-methyl-4-(2-(4-((3-methylbenzyl)oxy)phenyl)-7,8-dihydropyrido[4,3-d]pyrimidin-6(5H)-yl)butanoic acid]
< 6.00 | < 6.00 | < 6.00 | > 8.00 | O=C(O)CCN1CCc2cc(-c3ccc(OCc4ccc(Cl)cc4)cc3)ncc2C1 [Compound 174, 3-(6-((4(4-chlorobenzyl)oxy)phenyl)-3,4-dihydro-2,7-naphthyridin-2(1H)-yl)propanoic acid]
< 6.00 | < 6.00 | < 6.00 | 7.00 to 8.00 | O=C(O)CCN1CCc2nc(-c3ccc(OCc4cccc(F)c4)cc3F)ccc2C1 [Compound 145, 3-(2-(2-fluoro-4-((3-fluorobenzyl)oxy)phenyl)-7,8-dihydro-1,6-naphthyridin-6(5H)-yl)propanoic acid]
